Source: patent US20120252741A1, “NOVEL SEMI-SYNTHETIC GLYCOPEPTIDES AS ANTIBACTERIAL AGENTS” (priority 2008, published 2012)
≈ marks a conversion by molar mass, not a printed value. Read-outs that look alike come from different tables or passages of the source.

Tests used:
Format in all cases: cell-based
[1] = system: Staphylococcus aureus 100 (ATCC 29213); test: MIC, broth microdilution, SA 100; conditions: Staphylococcus aureus, ATCC29213, class symbols, read-out: MIC SA 100
Experimental: (§1) Antibacterial activity in vitro is investigated by broth microdilution method in Meuller-Hinton broth as recommended by NCCLS. All strains tested are clinical isolates either sensitive or resistant to natural glycopeptides. MIC values were determined using the CLSI-recommended broth microdilution procedure (Clinical and Laboratory Standards Institute, Methods for Dilution Antimicrobial Susceptibility Tests for Bacteria That Grow Aerobically; Approved Standard-Seventh Edition.). Automated liquid handlers (Multidrop 384, Labsystems, Helsinki, Finland; Biomek 2000 and Multimek 96, Beckman Coulter, Fullerton Calif.) were used to conduct serial dilutions and liquid transfers. The MIC value for vancomycin is given for comparison. The abbreviations for organisms tested are as follow: SA 100—Staphylococcus aureus 100 (ATCC 29213); SA 757—Staphylococcus aureus 757 (MRSA); SA 2012—Staphylococcus aureus 2012 (VISA); SE 835—Staphylococcus epidermidis 835; SE 831—Staphylococcus epidermidis 831 (MRSE); EFc 101—Enterococcus faecalis 101 (ATCC 29212); EFc 848—Enterococcus faecalis 848 (VRE, Van A); EFcm 800—Enterococcus faecium 800; EFcm 752—Enterococcus faecium 752 (VRE, Van A); SPNE 1195—Streptococcus pneumoniae 1195 (ATCC 49619); SPY 712—Streptococcus pyogenes 712.

[2] = system: Staphylococcus aureus 757 (MRSA); test: MIC, broth microdilution, SA 757; conditions: read-out: MIC SA 757
Experimental: as §1

[3] = system: Staphylococcus aureus 2012 (VISA); test: MIC, broth microdilution, SA 2012; conditions: read-out: MIC SA 2012
Experimental: as §1

[4] = system: Staphylococcus epidermidis 835; test: MIC, broth microdilution, SE 835; conditions: Staphylococcus epidermidis, 835, class symbols, read-out: MIC SE 835
Experimental: as §1

[5] = system: Staphylococcus epidermidis 831 (MRSE); test: MIC, broth microdilution, SE 831; conditions: Staphylococcus epidermidis, read-out: MIC SE 831
Experimental: as §1

[6] = system: Enterococcus faecalis 101 (ATCC 29212); test: MIC, broth microdilution, EFc 101; conditions: Enterococcus faecalis, ATCC29212, class symbols, read-out: MIC E FC 101
Experimental: as §1

[7] = system: Enterococcus faecalis 848 (VRE, Van A); test: MIC, broth microdilution, EFc 848; conditions: VRE, Van A, class symbols, read-out: MIC E FC 848
Experimental: as §1

Enterococcus faecium 800 = test: MIC, broth microdilution, EFcm 800; conditions: Enterococcus faecium, 800, class symbols, read-out: MIC E FCM 800
Experimental: as §1

[8] = system: Enterococcus faecium 752 (VRE, Van A); test: MIC, broth microdilution, EFcm 752; conditions: VRE, Van A, class symbols, read-out: MIC E FCM 752
Experimental: as §1

[9] = system: Streptococcus pneumoniae 1195 (ATCC 49619); test: MIC, broth microdilution, SPNE 1195; conditions: Streptococcus pneumoniae, ATCC49619, class symbols, read-out: MIC S PNE 1195
Experimental: as §1

[10] = system: Streptococcus pyogenes 712; test: MIC, broth microdilution, SPY 712; conditions: Streptococcus pyogenes, 712, class symbols, read-out: MIC S PYO 712
Experimental: as §1

[11] = Table 2, in the presence of 0.002% Polysorbate 80
[12] = Table 2, in the presence of 0.002% Polysorbate 80, class symbols

With `CN[C@H](CC(C)C)C(=O)N[C@H]1C(=O)N[C@@H](CC(=O)NC(=O)c2ccc(OCCCN)c(OCCCN)c2)C(=O)N[C@H]2C(=O)N[C@H]3C(=O)N[C@H](C(=O)N[C@H](C(=O)NC4C5CC6CC(C5)CC4C6)c4cc(O)cc(O)c4-c4cc3ccc4O)[C@H](O)c3ccc(c(Cl)c3)Oc3cc2cc(c3O[C@@H]2O[C@H](CO)[C@@H](O)[C@H](O)[C@H]2O[C@H]2C[C@](C)(N)[C@H](O)[C@H](C)O2)Oc2ccc(cc2Cl)[C@H]1O` (some centres unmarked) [Compound 166] the MIC [1, 11] was 0.01 to 0.5 µg/mL, the MIC [2, 12] was 0.01 to 0.5 µg/mL and the MIC [3, 12] was 1 to 2 µg/mL. The MIC [4, 11] was 0.5 to 1 µg/mL, the MIC [5, 12] was 0.01 to 0.5 µg/mL and the MIC [6, 11] was 0.01 to 0.5 µg/mL. The MIC [7, 11] was > 16 µg/mL, the MIC (Enterococcus faecium 800; [11]) was 0.01 to 0.5 µg/mL and the MIC [8, 11] was 2 to 4 µg/mL. For the same compound, the MIC [9, 11] was 0.01 to 0.5 µg/mL and the MIC [10, 11] was 0.01 to 0.5 µg/mL.
Work on `CN[C@H](CC(C)C)C(=O)N[C@H]1C(=O)N[C@@H](CC(=O)NC(=O)c2ccc(OCCCN)c(OCCCN)c2)C(=O)N[C@H]2C(=O)N[C@H]3C(=O)N[C@H](C(=O)N[C@H](C(=O)NC4C5CC6CC(C5)CC4C6)c4cc(O)cc(O)c4-c4cc3ccc4O)[C@H](O)c3ccc(c(Cl)c3)Oc3cc2cc(c3O[C@@H]2O[C@H](CO)[C@@H](O)[C@H](O)[C@H]2O)Oc2ccc(cc2Cl)[C@H]1O` (some centres unmarked) [Compound 163] yielded an MIC [1, 11] of 1 to 2 µg/mL, an MIC [2, 12] of 1 to 2 µg/mL and an MIC [3, 12] of 1 to 2 µg/mL. The MIC [4, 11] was 1 to 2 µg/mL, the MIC [5, 12] was 0.01 to 0.5 µg/mL and the MIC [6, 11] was 1 to 2 µg/mL. For the same compound, the MIC [7, 11] was > 16 µg/mL, the MIC (Enterococcus faecium 800; [11]) was 0.5 to 1 µg/mL and the MIC [8, 11] was 4 to 8 µg/mL. For the same compound, the MIC [9, 11] was 0.5 to 1 µg/mL and the MIC [10, 11] was 0.01 to 0.5 µg/mL.
`CN[C@H](CC(C)C)C(=O)N[C@H]1C(=O)N[C@@H](CC(=O)NS(=O)(=O)c2ccc(OCCOCCOC)cc2)C(=O)N[C@H]2C(=O)N[C@H]3C(=O)N[C@H](C(=O)N[C@H](C(=O)NC4C5CC6CC(C5)CC4C6)c4cc(O)cc(O)c4-c4cc3ccc4O)[C@H](O)c3ccc(c(Cl)c3)Oc3cc2cc(c3O[C@@H]2O[C@H](CN)[C@@H](O)[C@H](O)[C@H]2O)Oc2ccc(cc2Cl)[C@H]1O` (some centres unmarked) [Compound 102] was tested, and the MIC ([1]; Table 1) was 0.01 to 0.5 µg/mL (≈ 0.00589 to 0.295 µM), the MIC ([2]; Table 1, class symbols) was 0.01 to 0.5 µg/mL (≈ 0.00589 to 0.295 µM) and the MIC ([3]; Table 1, class symbols) was 0.5 to 1 µg/mL (≈ 0.295 to 0.589 µM). The MIC ([4]; Table 1) was 0.01 to 0.5 µg/mL (≈ 0.00589 to 0.295 µM), the MIC ([5]; Table 1, class symbols) was 0.01 to 0.5 µg/mL (≈ 0.00589 to 0.295 µM) and the MIC ([6]; Table 1) was 0.01 to 0.5 µg/mL (≈ 0.00589 to 0.295 µM). The MIC ([7]; Table 1) was 2 to 4 µg/mL (≈ 1.18 to 2.36 µM), the MIC (Enterococcus faecium 800; Table 1) was 0.01 to 0.5 µg/mL (≈ 0.00589 to 0.295 µM) and the MIC ([8]; Table 1) was 0.5 to 1 µg/mL (≈ 0.295 to 0.589 µM). It also gave an MIC ([9]; Table 1) of 0.01 to 0.5 µg/mL (≈ 0.00589 to 0.295 µM) and an MIC ([10]; Table 1) of 0.01 to 0.5 µg/mL (≈ 0.00589 to 0.295 µM).
`CCCCCCC(C)C(=O)NC(=O)C[C@@H]1NC(=O)[C@H](NC(=O)[C@@H](CC(C)C)NC)[C@H](O)c2ccc(c(Cl)c2)Oc2cc3cc(c2O[C@@H]2O[C@H](CO)[C@@H](O)[C@H](O)[C@H]2O[C@H]2C[C@](C)(N)[C@H](O)[C@H](C)O2)Oc2ccc(cc2Cl)[C@@H](O)[C@@H]2NC(=O)[C@H](NC(=O)[C@@H]3NC1=O)c1ccc(O)c(c1)-c1c(O)cc(O)cc1[C@@H](C(=O)NC1C3CC4CC(C3)CC1C4)NC2=O` (some centres unmarked) [Compound 46] was tested, and the MIC [1, 11] was 0.01 to 0.5 µg/mL, the MIC [2, 12] was 0.01 to 0.5 µg/mL and the MIC [3, 12] was 2 to 4 µg/mL. It also gave an MIC [4, 11] of 0.01 to 0.5 µg/mL, an MIC [5, 12] of 0.01 to 0.5 µg/mL and an MIC [6, 11] of 0.01 to 0.5 µg/mL. For the same compound, the MIC [7, 11] was 2 to 4 µg/mL, the MIC (Enterococcus faecium 800; [11]) was 0.01 to 0.5 µg/mL and the MIC [8, 11] was 0.01 to 0.5 µg/mL. The MIC [9, 11] was 0.01 to 0.5 µg/mL and the MIC [10, 11] was 0.01 to 0.5 µg/mL.
